Where two headings read alike, the source gives them in different places. Each block holds one compound with its values, some of them ahead of it.
Columns and labels:
Cdk2/Cyclin A = Cdk2/Cyclin A (Homo sapiens, UniProt P24941); assay: CDK2 inhibition assay; format: biochemical
[1] = tested on: outer hair cells, 32-kHz region of the organ of Corti; assay: Morphologic analysis and OHC counts of cochleae from cisplatin-treated mice; format: in vivo, mouse
[2] = weekly dosing schedule, phase I study; cited from earlier work
[3] = tested on: cisplatin-induced ototoxicity in adult FVB mice; format: in vivo, mouse; conditions: 50 μM transtympanic
[4] = tested on: P3 mouse cochlear explants; assay: Cochlear explant cultures treated with cisplatin, outer hair cell counts; conditions: for Protection at higher doses in explants treated with cisplatin: dose-response
adult FVB mice = assay: Toxicity of compound alone delivered transtympanically; conditions: 2, 10 or 50 μM, single transtympanic injection, 15 days after injection
[5] = tested on: cisplatin-induced ototoxicity in adult FVB mice; conditions: earlier study of the authors; cited from earlier work

- IC50 (Cdk2/Cyclin A): 0.76 µM
Compound: O=C(NC1CCN(C(=O)c2c(Cl)cccc2Cl)CC1)c1n[nH]cc1NC(=O)c1c(Cl)cccc1Cl [analog 14]

Compound: Cc1ncc(-c2ccnc(Nc3ccc(S(C)(=O)=O)cc3)n2)n1C(C)C [AZD5438]
- OHC loss in the 32-kHz region ([1]; 50 μM transtympanic 1 h before and 24 h after cisplatin): virtually no OHC loss
- Safety and tolerability in patients [2]: safe and well tolerated
- Overall protection against cisplatin-induced ototoxicity in mice [3]: fully protective

Compound: O=C(NC1CCNCC1)c1n[nH]cc1NC(=O)c1c(Cl)cccc1Cl [AT7519, N-(4-piperidinyl)-4-(2,6-dichlorobenzoylamino)-1H-pyrazole-3-carboxamide]
- Protection in cochlear explant cultures treated with cisplatin ([4]; compound 25 nM, cisplatin 150 μM): excellent protection
- Protection at higher doses in explants treated with cisplatin [4]: loss of activity was observed at higher doses

Compound: O=C(N[C@H]1CC[C@H](O)CC1)c1n[nH]cc1NC(=O)c1c(F)cccc1F [analog 7]
- OHC loss in middle basal turn (32-kHz region) vs cisplatin alone ([1]; 50 μM transtympanic 1 h before cisplatin): Substantially less OHC loss
- Protection against cisplatin toxicity in cochlear explants ([4]; compound 150 nM, P3 mouse explants, OHC counts): significant protection
- Protection at higher doses in explants treated with cisplatin [4]: maintains the level of protection at higher doses
- Toxicity in the ears of mice in the absence of cisplatin (adult FVB mice): nontoxic
- Overall protection against cisplatin-induced ototoxicity in mice [3]: some—but not complete—protection

Compound: O=C1Cc2c([nH]c3ccc(Br)cc23)-c2ccccc2N1 [Kenpaullone]
- Overall protection against cisplatin-induced ototoxicity in mice [5]: complete protection

Compound: AZD1080
- EC50 ([4]; read-out: Explant EC50, estimated EC50 based on 2–3 tested dose concentrations, cisplatin 150 μM): 15 µM
